Measurements from ChEMBL document CHEMBL1201862, “PubChem BioAssay data set” (2004).
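Where inhibition never reached the appropriate level, the endpoint shown equals the highest concentration tested. Otherwise, values were interpolated linearly from a five-concentration, 48-hour dose response in 96-well plates. GI50 is the concentration that inhibits growth by half.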 Activity calls are given as the source filed them. Cut-off read from the data, not from the text of the source: active = GI50 up to about 1.1 µM and inactive = higher.

How the values were obtained:
Assay in all cases: NCI anticancer screen, dose series, 48 h
OVCAR-5 = tested on: OVCAR-5
M14 = tested on: M14
786-0 = tested on: 786-0
OVCAR-8 = tested on: OVCAR-8
UACC-62 = tested on: UACC-62
SR = tested on: SR
HCC 2998 = tested on: HCC 2998
NCI-H226 = tested on: NCI-H226
SF-268 = tested on: SF-268
UO-31 = tested on: UO-31
SK-MEL-28 = tested on: SK-MEL-28
DU-145 = tested on: DU-145
T47D = tested on: T47D
HCT-15 = tested on: HCT-15
RPMI-8226 = tested on: RPMI-8226
SF-539 = tested on: SF-539
HT-29 = tested on: HT-29
MDA-MB-231 = tested on: MDA-MB-231
NCI/ADR-RES = tested on: NCI/ADR-RES
HL-60 = tested on: HL-60

Measured: GI50

COC1CC(C)C(OC)c2cc(O)cc(c2O)NC(=O)/C(C)=C/C=C\C(C)C(OC(N)=O)/C(C)=C\C(C)C1OC (stereo not drawn)
active: M14 1.02 µM | UACC-62 0.274 µM | SR 0.0396 µM | HCC 2998 0.951 µM | SK-MEL-28 0.336 µM | DU-145 0.231 µM | T47D 0.266 µM | RPMI-8226 0.152 µM | SF-539 0.417 µM | HT-29 0.139 µM
inactive: OVCAR-5 1.47 µM | 786-0 2.03 µM | OVCAR-8 7.28 µM | NCI-H226 7.35 µM | SF-268 2.19 µM | UO-31 7.11 µM
5.6 µM: HCT-15

Nc1ccc2c(c1)Cc1ccccc1-2
inactive: OVCAR-5 > 100 µM | M14 > 100 µM | 786-0 > 100 µM | OVCAR-8 > 100 µM | UACC-62 59.4 µM | SR 52.5 µM | HCC 2998 > 100 µM | NCI-H226 > 100 µM | UO-31 19.5 µM | MDA-MB-231 > 100 µM | SK-MEL-28 > 100 µM | NCI/ADR-RES > 100 µM | SF-539 73.6 µM | HT-29 > 100 µM | HL-60 36.6 µM
62.2 µM: HCT-15

COc1cc([N+](=O)[O-])c(S(=O)(=O)O)cc1-n1nc(C(=O)Nc2ccccc2)n[n+]1-c1cc(S(=O)(=O)[O-])c([N+](=O)[O-])cc1OC
45.4 µM: HCT-15
inactive: OVCAR-5 > 100 µM | M14 > 100 µM | 786-0 > 100 µM | OVCAR-8 > 100 µM | UACC-62 42.2 µM | SR > 100 µM | NCI-H226 > 100 µM | SF-268 > 100 µM | UO-31 > 100 µM | SK-MEL-28 > 100 µM | DU-145 > 100 µM | RPMI-8226 > 100 µM | NCI/ADR-RES > 100 µM | HT-29 56 µM | HL-60 > 100 µM

Cc1nc(C(N)=S)sc1C(=O)CC(=O)C(=O)Nc1nc2ccccc2[nH]1
> 100 µM: HCT-15
inactive: OVCAR-5 > 100 µM | M14 > 100 µM | 786-0 > 100 µM | OVCAR-8 > 100 µM | UACC-62 > 100 µM | SR > 100 µM | HCC 2998 > 100 µM | NCI-H226 11.5 µM | SF-268 > 100 µM | UO-31 > 100 µM | MDA-MB-231 > 100 µM | SK-MEL-28 > 100 µM | T47D > 100 µM | RPMI-8226 > 100 µM | NCI/ADR-RES > 100 µM | SF-539 > 100 µM | HT-29 > 100 µM | HL-60 46.8 µM

C/C(=N\NC(N)=S)c1cc(C)c(C)cc1C
inactive: OVCAR-5 20.1 µM | M14 37.2 µM | 786-0 93.8 µM | OVCAR-8 > 100 µM | UACC-62 30.9 µM | SR 37 µM | HCC 2998 52.5 µM | NCI-H226 > 100 µM | SF-268 62.4 µM | UO-31 56.8 µM | SK-MEL-28 86.7 µM | RPMI-8226 31.3 µM | SF-539 35.5 µM | HT-29 20.2 µM | HL-60 21.7 µM
83.8 µM: HCT-15

O=[N+]([O-])c1ccc(O)c(/C=N/CC2CCCN3CCCCC23)c1 (stereo not drawn)
inactive: OVCAR-5 31.7 µM | M14 19.6 µM | 786-0 38.8 µM | OVCAR-8 30.8 µM | UACC-62 27.9 µM | HCC 2998 22.5 µM | NCI-H226 26.5 µM | SF-268 21.3 µM | UO-31 34.8 µM | MDA-MB-231 88.1 µM | DU-145 42.2 µM | NCI/ADR-RES 20.7 µM | SF-539 25.6 µM | HT-29 35.6 µM
41.1 µM: HCT-15

O=[N+]([O-])c1ccc(/C(Cl)=C/c2ccc(/C=C(\Cl)c3ccc([N+](=O)[O-])cc3[N+](=O)[O-])cc2)c([N+](=O)[O-])c1
> 100 µM: HCT-15
inactive: OVCAR-5 > 100 µM | M14 > 100 µM | 786-0 > 100 µM | OVCAR-8 > 100 µM | UACC-62 > 100 µM | SR > 100 µM | HCC 2998 > 100 µM | NCI-H226 > 100 µM | SF-268 > 100 µM | UO-31 > 100 µM | SK-MEL-28 > 100 µM | RPMI-8226 > 100 µM | SF-539 > 100 µM | HT-29 > 100 µM | HL-60 57.4 µM

CCCCCNC(=O)CCCCCCCCCCCNC(=O)CCCCCCCCCCN1C=CC(=CC=C2C=CC(=O)C=C2)C=C1
inactive: OVCAR-5 > 100 µM | M14 > 100 µM | 786-0 > 100 µM | OVCAR-8 55.7 µM | UACC-62 48.4 µM | SR 6.64 µM | HCC 2998 32.7 µM | NCI-H226 63.8 µM | SF-268 > 100 µM | UO-31 > 100 µM | SK-MEL-28 > 100 µM | RPMI-8226 8.99 µM | SF-539 30.3 µM | HT-29 54.6 µM | HL-60 2.51 µM
> 100 µM: HCT-15

N#CC1(C#N)C2CCCCC23OC(=N)C1(C#N)C(c1ccccc1)O3 (stereo not drawn)
12.4 µM: HCT-15
inactive: OVCAR-5 21.2 µM | M14 12.7 µM | 786-0 14.6 µM | OVCAR-8 21 µM | UACC-62 17.9 µM | HCC 2998 14.2 µM | NCI-H226 > 100 µM | SF-268 2.49 µM | UO-31 34.8 µM | MDA-MB-231 16.4 µM | SK-MEL-28 > 10 µM | DU-145 20.5 µM | T47D 17.5 µM | NCI/ADR-RES 41.5 µM | SF-539 17.1 µM | HT-29 18.2 µM

COC[C@H]1OC(=O)c2coc3c2[C@@]1(C)C1=C(C3=O)[C@@H]2CCC(=O)[C@@]2(C)C[C@H]1OC(C)=O [WORTMANNIN]
9.91 µM: HCT-15
inactive: OVCAR-5 15 µM | M14 2.15 µM | 786-0 8.43 µM | OVCAR-8 25 µM | UACC-62 1.31 µM | SR 1.84 µM | HCC 2998 2.16 µM | SF-268 21.4 µM | SK-MEL-28 7.45 µM | DU-145 3.34 µM | RPMI-8226 2.43 µM | NCI/ADR-RES 38.8 µM | SF-539 2.82 µM | HT-29 1.97 µM
active: UO-31 0.665 µM | T47D 0.637 µM

O=C(NC1C(=O)NNC1c1ccccc1Cl)c1ccccc1 (stereo not drawn)
> 100 µM: HCT-15
inactive: OVCAR-5 > 100 µM | M14 > 100 µM | 786-0 > 100 µM | OVCAR-8 > 100 µM | UACC-62 > 100 µM | SR 42.2 µM | HCC 2998 > 100 µM | NCI-H226 83 µM | SF-268 > 100 µM | UO-31 > 100 µM | SK-MEL-28 > 100 µM | RPMI-8226 82.2 µM | SF-539 > 100 µM | HT-29 > 100 µM | HL-60 > 100 µM

COc1ccc(/C(=N\Nc2ccccn2)c2ccccn2)cc1
active: M14 < 0.01 µM | 786-0 < 0.0162 µM | OVCAR-8 < 0.01 µM | UACC-62 0.104 µM | SR 0.0547 µM | NCI-H226 < 0.01 µM | SF-268 0.0311 µM | UO-31 0.0405 µM | MDA-MB-231 < 0.0193 µM | SK-MEL-28 0.336 µM | DU-145 0.29 µM | RPMI-8226 < 0.0268 µM | NCI/ADR-RES < 0.01 µM | SF-539 0.0627 µM | HT-29 < 0.01 µM | HL-60 < 0.01 µM
0.0103 µM: HCT-15
inactive: OVCAR-5 2.54 µM | HCC 2998 2.93 µM

O=C(O)Cc1ccccc1CCc1ccccc1Cl
> 100 µM: HCT-15
inactive: OVCAR-5 > 100 µM | M14 > 100 µM | 786-0 > 100 µM | OVCAR-8 > 100 µM | SR > 100 µM | HCC 2998 > 100 µM | NCI-H226 68.1 µM | SF-268 > 100 µM | UO-31 > 100 µM | SK-MEL-28 > 100 µM | RPMI-8226 > 100 µM | SF-539 > 100 µM | HT-29 > 100 µM | HL-60 > 100 µM

COC1(C(C)(C)C)C=C(C(C)(C)C)P(=O)(O)O1 (stereo not drawn)
> 100 µM: HCT-15
inactive: OVCAR-5 > 100 µM | M14 > 100 µM | 786-0 > 100 µM | OVCAR-8 > 100 µM | UACC-62 > 100 µM | SR > 100 µM | HCC 2998 15.7 µM | SF-268 > 100 µM | SK-MEL-28 > 100 µM | DU-145 > 100 µM | T47D 1.36 µM | RPMI-8226 > 100 µM | NCI/ADR-RES > 100 µM | SF-539 > 100 µM | HT-29 > 100 µM | HL-60 > 100 µM

COC(=O)C1=C(O)C(C(=O)OC)[C@]2(O)[C@H](C(=O)OC)[C@H]1C[C@@H](c1cccc(OC)c1)[C@H]2C(=O)OC (stereo partly drawn)
inactive: OVCAR-5 24.9 µM | M14 29.7 µM | 786-0 20.7 µM | OVCAR-8 31.6 µM | UACC-62 16.9 µM | SR 21.9 µM | HCC 2998 20.5 µM | NCI-H226 28.8 µM | SF-268 26.1 µM | UO-31 13.9 µM | MDA-MB-231 27.2 µM | SK-MEL-28 37.6 µM | T47D 30.5 µM | RPMI-8226 19.4 µM | NCI/ADR-RES 29.4 µM | SF-539 32.3 µM | HT-29 34.9 µM
26.3 µM: HCT-15
active: HL-60 0.207 µM

CC(=O)C1C(=O)C(=O)N(c2ccc([N+](=O)[O-])cc2[N+](=O)[O-])C1=O (stereo not drawn)
inactive: OVCAR-5 > 100 µM | M14 > 100 µM | 786-0 > 100 µM | OVCAR-8 > 100 µM | UACC-62 > 100 µM | HCC 2998 > 100 µM | NCI-H226 > 100 µM | SF-268 > 100 µM | UO-31 59.3 µM | MDA-MB-231 > 100 µM | SK-MEL-28 > 100 µM | DU-145 > 100 µM | NCI/ADR-RES > 100 µM | SF-539 > 100 µM | HT-29 > 100 µM | HL-60 > 100 µM
> 100 µM: HCT-15
